# Assay results as given in patent US5268389A, “Thiocarboxylate ester compounds compositions containing the same” (priority 1990, dated 1993).
# How the values were obtained:
# host DNA synthesis = settings: administration of AZT; cited from earlier work
# HIV = experiment: Reduction of HIV cytopathic effect, MT2V (MT2 cells, free virus); type: cell-based; settings: Human immunodeficiency virus 1, read-out: Activity of Anti-HIV Compounds (EC50), MT2V
# Description: The compounds of Examples were tested for anti-AIDS activity by subjecting them to standard National Cancer Institute ("NCI") in vitro screening procedures. In carrying out each test, two blanks were run. In the first blank, HIV and a culture of a standard human cell line were incubated together to measure the infectivity of the virus. The viability of the cells was measured after holding for six or seven days. In an "effective" test, most cells were infected before the holding period was complete.
# In the second blank, the cell line culture and the compound being tested (but not virus) were incubated together to measure the toxicity of the drug to the cellline. The viability of the cells was measured as a function of concentration of the compound, after holding for seven days. […]
# Finally, the protective effects of the test compounds were measured. Each cell culture and test compound were incubated with the virus and the viability of the cells was measured as a function of compound concentration after holding for six or seven days. […] At this point, cell viability increases steadily toward 100% unless the toxic effect of the compound (as measured in the second blank) takes effect. […] The therapeutic index TI50 is calculated as IC50/EC50.
# Values of test compound concentrations required for between 20 and 50% reduction of the viral cytopathic effect can also be determined. […]
# [1] = parameters: species or system mice; settings: mouse, in vivo, iv, 10 mg/kg/day
# Excerpt: Initial studies on the toxicity of the compound of Example 1 were made on mice.
# for 5 days Per Day Test Toxicity
# various fungi = settings: variety of crops; cited from earlier work
structure (smiles),measurement,setting,value
"Cc1cn([C@H]2C[C@H](N=[N+]=[N-])[C@@H](CO)O2)c(=O)[nH]c1=O [AZT, Azidothymidine]",side effects,host DNA synthesis,"severe side effects, e.g., anemia, granulocytopenia, and thrombocytopenia"
"CC1=C(C(=O)Nc2ccc(Cl)c(C(=O)OC(C)C)c2)SCCO1 [Compound 1, 1-Methylethyl 2-chloro-5-[[(5,6-dihydro-2-methyl-1,4-oxathiin-3-yl)carbonyl]amino]benzoate]",EC50,HIV,2.6 µM
same,"Result, Toxicity",[1],No visible sign
"CC1=C(C(=O)Nc2ccccc2)SCCO1 [carboxin, 5,6-dihydro-2-methyl-N-phenyl-1,4-oxathiin-3-carboxamide]",control of fungi by seed treatment,various fungi,providing control by seed treatment of various fungi
